From patent US5925667A, “Pyrrolidine derivative, anti-ulcer drug, and antibacterial drug” (Shiseido Co., Ltd., priority 1997, dated 1999)

Tested on: not listed separately
Experiment: MTT: Cell Damaging and Protecting Effect Test
Type: cell-based, male Japanese White rabbit
Conditions: rabbit, gastric mucosa cells, final concentration 10^-4 M, smaller value is better, read-out: cell damaging rate (MTT)
Description: MTT: Cell Damaging and Protecting Effect Test
It is confirmed that there is no toxicity in cell level. Those having a toxicity in cell level are inappropriate as an anti-ulcer drug.
A male Japanese White rabbit (2.5 to 3 kg) was anesthetized to death by Nembutal™ and, immediately thereafter, its stomach was removed. The greater curvature of the stomach was incised so as to remove the stomach contents therefrom. After the mucosal surface was washed with HBSS (Hanks' Balanced Salt Solution), the stomach in ice-cooled HBSS was transferred to a laboratory. Then, after the pyloric antrum was removed, the gastric corpus mucosa was separated by a spatula and then minced into 2 to 3 mm^3 pieces in BME (Basal Medium Eagle). Thereafer, these pieces were shaken at 120 to 130 cycles/minute for 15 minutes at 37° C. in BME 60 ml containing 280 U/ml of dispase and 30 to 50 U/ml of collagenase. Here, the concentration of collagenase was appropriately changed for each lot in view of the state of cells. The pieces were washed twice with EBSS (Earle's Balanced Salt Solution) containing 1 mM of EDTA and then shaken in MEM (Minimum Essential Medium) containing 1 mM of EDTA at 37° C. for 5 minutes. Subsequently, they were shaken in the dispase and collagenase having the same concentrations as those mentioned above for 15 minutes so as to remove the supernatant and then further shaken at 37° C. for 50 to 60 minutes at 120 to 130 cycles/minute. Then, after being washed twice with HBSS, Ham F12 containing 2% of Ultrocer G™ was used to attain the concentration of 1×10^6 cells/ml. Thus formed suspension was dispensed in each well of a 96-well plate by 200 μl. The plate was incubated in the atmosphere composed of 5% CO2 and 95% air at 37° C. for three days so as to attain a confluent state and then subjected to MTT assay.
The sample compound was dissolved in DMSO so as to attain a concentration of 10^-2 M and then diluted with HBSS containing 2% of Ultrocer G™ so as to attain a final concentration of 10^-4 M. To each group, which 8 wells were used for, 10 μl of MTT reagent was added immediately after 100 μl of the medium in each well was exchanged for same volume of the resulting solution of the sample compound. After being incubated in an atmosphere composed of 5% CO2 and 95% air at 37° C. for 4 hours, thus formed solution was centrifuged and then its supernatant was discarded. Subsequently, 100 μl of 100% ethanol was added to the residue so as to dissolve MTT formazan. Then, the absorbance (OD: 570 to 630) was measured by a microplate reader. This method utilizes a phenomenon in which MTT is changed to MTT formazan only by mitochondria of living cells so as to change color.
The cell damaging or cell protecting effect of the sample compound at the final concentration of 10^-4 M was expressed as cell damaging rate (%) as follows:
cell damaging rate (%)=(1-(absorbance in sample group/absorbance in control group))×100
Accordingly, the smaller value is better in the cell damaging rate.

Structure (SMILES) | cytotoxicity at 4 h, 100 µM
CCN1CCCC1CNC(=O)c1ccc(OC)c(OC/C=C(\C)CCC=C(C)C)c1 (centres unmarked) [Example 15, 1-ethyl-2-(3-geranyloxy-4-methoxybenzoylaminomethyl)pyrrolidine] | 2%
CCN1CCCC1CNC(=O)c1ccc(OC)cc1OC/C=C(\C)CCC=C(C)C (centres unmarked) [Example 18, 1-ethyl-2-(2-geranyloxy-4-methoxybenzoylaminomethyl)pyrrolidine] | 4%
CCN1CCCC1CNC(=O)c1cc(OC)ccc1OC/C=C(\C)CCC=C(C)C (centres unmarked) [Example 19, 1-ethyl-2-(2-geranyloxy-5-methoxybenzoylaminomethyl)pyrrolidine] | 21%
CCN1CCCC1CNC(=O)c1cc(F)ccc1OC/C=C(\C)CCC=C(C)C (centres unmarked) [Example 20, 1-ethyl-2-(3-fluoro-6-geranyloxybenzoylaminomethyl)pyrrolidine] | 23%
CCN1CCCC1CNC(=O)c1cc(OC)c(OCC=C(C)C)c(OC)c1 (centres unmarked) [Example 24, 1-ethyl-2-(3,5-dimethoxy-4-prenyloxybenzoylaminomethyl)pyrrolidine] | 12%
CCN1CCCC1CNC(=O)c1cccnc1OCC=C(C)C (centres unmarked) [Example 25, 1-ethyl-2-(2-prenyloxynicotinoylaminomethyl)pyrrolidine] | -15%
CCN1CCCC1CNC(=O)c1ccc(OCC=C(C)C)nc1 (centres unmarked) [Example 26, 1-ethyl-2-(6-prenyloxynicotinoylaminomethyl)pyrrolidine] | -8%

Tested on: stress ulcer
Experiment: WIS: Restraint and Water Immersion Stress-Induced Ulcer Inhibition Test
Type: in vivo, male Crj:SD or Slc:SD rats
Conditions: rat, 100 mg/kg oral, 7 h water immersion stress; read-out: ulcer formation inhibitory rate (WIS)
Experimental: WIS: Restraint and Water Immersion Stress-Induced Ulcer Inhibition Test
The degree of inhibition of the stress ulcer formation is tested.
Male Crj:SD or Slc:SD rats (6 to 7-week-old) were fasted overnight, but allowed free access to water. Each group has 5 to 8 of these rats. The sample compound was dissolved or suspended in an aqueous solution of 0.3% sodium carboxymethylcellulose or 0.05% Tween 80 and then was orally administered (100 mg/10 ml/kg. To a control group, the vehicle was administered. 10 minutes later, the rats were placed in a stress cage and immersed to the level of xipfoid process in a water bath (21° C.) for 7 hours. At the end of the stress, the rats were sacrificed by inhalation of ether or carbon dioxide. Then, the stomach of each was removed, inflated by injecting 10 ml of 5% formalin neutral buffer solution, and immersed in 1% formalin neutral buffer solution for 30 minutes or more to be fixed. The stomach was incised along the greater curvature and then the length of each erosion in the glandular portion was determined under dissecting microscope. The sum of the length of erosions per stomach was defined as ulcer index (UI).
The effect obtained when 100 mg/kg of the sample compound had been administered was expressed as ulcer formation inhibitory rate (%) as follows:
ulcer formation inhibitory rate (%)=(1-(UI in sample group/UI in control group))×100

Structure (SMILES) | inhibition in vivo at 100 mg/kg
CCN1CCCC1CNC(=O)c1ccc(OC/C=C(\C)CCC=C(C)C)cc1 (centres unmarked) [Example 1, 1-ethyl-2-(4-geranyloxybenzoylaminomethyl)pyrrolidine] | 80%
CCN1CCCC1CNC(=O)c1ccc(OC/C=C(\C)CCC=C(C)C)cc1OC/C=C(\C)CCC=C(C)C (centres unmarked) [Example 9, 1-ethyl-2-(2,4-digeranyloxybenzoylaminomethyl)pyrrolidine] | 66%
CCN1CCCC1CNC(=O)c1ccc(OC/C=C(\C)CCC=C(C)C)c(OC/C=C(\C)CCC=C(C)C)c1 (centres unmarked) [Example 11, 1-ethyl-2-(3,4-digeranyloxybenzoylaminomethyl)pyrrolidine] | 75%
CCN1CCCC1CNC(=O)c1cc(OCC=C(C)C)c(OCC=C(C)C)c(OCC=C(C)C)c1 (centres unmarked) [Example 13, 1-ethyl-2-(3,4,5-triprenyloxybenzoylaminomethyl)pyrrolidine] | 57%
CCN1CCCC1CNC(=O)c1ccc(OC)c(OC/C=C(\C)CCC=C(C)C)c1 (centres unmarked) [Example 15, 1-ethyl-2-(3-geranyloxy-4-methoxybenzoylaminomethyl)pyrrolidine] | 91%
CCN1CCCC1CNC(=O)c1ccc(OC)cc1OC/C=C(\C)CCC=C(C)C (centres unmarked) [Example 18, 1-ethyl-2-(2-geranyloxy-4-methoxybenzoylaminomethyl)pyrrolidine] | 76%
CCN1CCCC1CNC(=O)c1cc(OC)ccc1OC/C=C(\C)CCC=C(C)C (centres unmarked) [Example 19, 1-ethyl-2-(2-geranyloxy-5-methoxybenzoylaminomethyl)pyrrolidine] | 89%
CCN1CCCC1CNC(=O)c1cc(F)ccc1OC/C=C(\C)CCC=C(C)C (centres unmarked) [Example 20, 1-ethyl-2-(3-fluoro-6-geranyloxybenzoylaminomethyl)pyrrolidine] | 89%
CCN1CCCC1CNC(=O)c1cc(OC)c(OC/C=C(\C)CCC=C(C)C)c(OC)c1 (centres unmarked) [Example 21, 1-ethyl-2-(3,5-dimethoxy-4-geranyloxybenzoylaminomethyl)pyrrolidine] | 76%
CCN1CCCC1CNC(=O)c1cc(OC)c(OC)c(OC/C=C(\C)CCC=C(C)C)c1 (centres unmarked) [Example 22, 1-ethyl-2-(3,4-dimethoxy-5-geranyloxybenzoylaminomethyl)pyrrolidine] | 80%
CCN1CCCC1CNC(=O)c1cc(OC)c(OCC=C(C)C)c(OC)c1 (centres unmarked) [Example 24, 1-ethyl-2-(3,5-dimethoxy-4-prenyloxybenzoylaminomethyl)pyrrolidine] | 79%
CCN1CCCC1CNC(=O)c1cccnc1OCC=C(C)C (centres unmarked) [Example 25, 1-ethyl-2-(2-prenyloxynicotinoylaminomethyl)pyrrolidine] | 90%
CCN1CCCC1CNC(=O)c1ccc(OCC=C(C)C)nc1 (centres unmarked) [Example 26, 1-ethyl-2-(6-prenyloxynicotinoylaminomethyl)pyrrolidine] | 48%
